Values of other authors in US20150208691A1, “NOVEL USE OF ALKOXYLATES OF MONO- AND POLYVALENT ALCOHOLS” (AB AGRI LIMITED, priority 2012, published 2015).
Read-outs that look alike come from different tables or passages of the source.

How the values were obtained:
methane emissions [1] = settings: sheep
methane emissions [2] = settings: cows, compared with sheep

## C=CCS[S+]([O-])CC=C (centres unmarked) [Allicin]
Methane emissions [1]
  reduction of methane emissions: 20%
Methane emissions [2]
  reduction of methane emissions: not as effective
